Data set [1] relates to Human erythrocytes. Briefly: Hemolytic assay. Conditions: peptide 300 μg/mL, 10 mM Tris-HCl pH 7.5 with 308 mM sucrose, 0.5 h, A540, pure water = 100% lysis. The class given is cell-based. As to the method:
Hemolytic assay was performed as previously described. Human erythrocytes were used. Hemolysis was estimated as the leakage of haemoglobin. The erythrocytes were washed and resuspended in 10 mM Tris-HCl, pH 7.5, containing 308 mM sucrose. The erythrocyte suspension was diluted by 30%. The diluted suspension was mixed with the equal volume of peptide solution dissolved in the same buffer. After 0.5 h of incubation, the test suspension was centrifuged to remove the intact erythrocytes. The supernatant was diluted, and A540 was measured. The hemolysis caused by pure water was defined as 100% lysis.

In data set [2] the test system is Bacillus subtilis IFO3134. The class given is cell-based. Conditions: IFO3134, 2 h, pH 7.5. As to the method:
(§1) Microbicidal assay was performed as previously described. A low ionic strength condition was used to detect bactericidal activity with higher sensitivity. Briefly, each microbial strain in the mid-exponential phase was suspended in 10 mM Tris/HCl, pH 7.5. The microbial suspension was mixed with peptides. After 2 h incubation, the suspension was diluted 1,000 times and inoculated on to plates of IFO702 medium (1% polypeptone, 0.2% yeast extract, 0.1% MgSO4 7H2O, 2% agar). The numbers of colonies were counted, and a plot of peptide concentration vs colony number was created.

In data set [3] the test system is Staphylococcus aureus IFO12732. The class given is cell-based. The conditions noted are these: IFO12732, 2 h, pH 7.5. The method, then:
as §1

The subject of data set [4] is Micrococcus luteus IFO12708. In kind it is cell-based. Conditions: IFO12708, 2 h, pH 7.5. The method, then: as §1
Data set [5] concerns Saccharomyces cerevisiae MAFF113011. In kind it is cell-based. Conditions: MAFF113011, 2 h, pH 7.5. As to the method:
as §1

The subject of data set [6] is Escherichia coli JM109. The class given is cell-based. The conditions noted are these: JM109, 2 h, pH 7.5. As to the method:
as §1

The subject of data set [7] is Salmonella typhimurium IFO13245. In kind it is cell-based. The conditions noted are these: murium IFO13245, 2 h, pH 7.5. The method, then:
as §1

Data set [8] concerns Serratia marcescens IFO3736. The class given is cell-based. The conditions noted are these: IFO3736, 2 h, pH 7.5. As to the method:
as §1

Data set [9] relates to Pseudomonas aeruginosa IFO3899. In kind it is cell-based. The conditions noted are these: IFO3899, 2 h, pH 7.5. As to the method: as §1
For data set [10] the following is noted: cited from earlier work.
Data set [11] is described as follows: Precipitation in the presence of PG/CL liposomes (CD sample conditions). In kind it is physicochemical. The conditions noted are these: peptide 100 μg/ml, PG/CL liposome 500 μg/ml, 10 mM Tris-HCl pH 7.5, 20°C. The method, then: CD spectra were recorded on a J-720 spectropolarimeter (JASCO, Tokyo, Japan) in the far-ultraviolet (UV) range from 190 to 260 nm using a 0.1 cm thermostatted cell at 25°C. Peptides were dissolved in 10 mM Tris-HCl (pH 7.5) containing tri-fluoroethanol (TFE) at 0-100%. For measurement under the presence of liposomes, peptides were dissolved at 100 μg/ml containing 500 μg/ml liposomes at 20°C.
Furthermore, membrane-disruptive activities against liposomes were also estimated. A liposome dye-leakage assay was used. […] In contrast, NP2P and NP3P damaged the PG/CL liposome membrane at ≥0.3 μg/ml (Figure 4). The concentration was equal or lower than MBCs against Gram-positive bacteria, which were measured under identical ionic conditions. […] Since CD spectra could not be measured, the conformation of NP3P in the presence of PG/CL membrane remains unclear.

Data set [12] in a line: Liposome disruption assay (calcein release), PC liposomes. The method, then:
(§2) Membrane-disrupting activity was estimated by liposome disruption assay. Bovine heart phosphatidylglycerol (PG), egg cardiolipin (CL), and egg phosphatidylcholine (PC) were purchased from Avanti Polar Lipids, Inc., Alabama, USA. A lipid film was prepared by rotary evaporation of lipid solution (1 mg lipid in 1 ml chloroform). The lipid film was hydrated with 1 ml of 10 mM Tris-HCl buffer (pH 7.5) containing 75 mM calcein. Lipid dispersions were sonicated and subjected to five freeze-thaw cycles. Non-trapped calcein was removed by gel filtration on a Sephacryl S-300 spin column (GE Healthcare Bio-Science Corp., Piscataway, NJ, USA) equilibrated with 10 mM Tris-HCl (pH 7.5) containing 175 mM NaCl and 1 mM EDTA. These calcein-entrapped liposomes were diluted at a ratio of 1:1000 in 10 mM Tris-HCl (pH 7.5) containing 350 mM sucrose. Calcein release after membrane disruption was evaluated by measuring fluorescence intensity at 515 nm with excitation at 492 nm on a RF-5300PC spectrofluorometer at room temperature.

Data set [13] can be described thus: Liposome disruption assay (calcein release), PG/CL liposomes. Conditions: PG:CL = 3:1 (molar), 10 mM Tris-HCl pH 7.5 with 350 mM sucrose, room temperature, three independent trials. The method, then:
as §2
Figure 4 Membrane-disruption against acidic-liposomes. Calcein release from vesicles consisting of PG:CL = 3:1 was measured. Each point was obtained from three independent trials using a single preparation of liposomes and peptides, and represents the mean ± standard error of the mean.

No end group written: not given here.

On to RRRFVAEQDAIHSRVSREVPTLSDSV-OH [P1P], for which, in [1], the “Hemolytic activity (%)” value amounted to 0.00 ± 0.00%. Further, the MBC in [2], in data set [3], in data set [4], in data set [5], in [6] and in data set [7] was over 300 µg/mL each time. In addition, the MBC in data set [8] was >300 (>300) μg/ml; in [9], over 300 µg/mL.
“HRRSVAHQQQASLHVKTNQLPSPNTVRQQL-OH [NP4P]”: the “enhancer activity for membrane-disruptive antimicrobial peptides” value in [10] is given as “enhancer activity for membrane-disruptive antimicrobial peptides was detected”. In addition, the MBC in [2], in [3], in data set [4], in data set [5], in data set [6] and in [7] was >300 (>300) μg/ml in each case. Moreover, the MBC in data set [8] and in [9] was >300 (>300) μg/ml in each case.
In the case of RRRSVGEEDAIPSHIEVNKFFLRKPAKEHI-OH [P3P], the “Hemolytic activity (%)” value in data set [1] is 1.69 ± 0.05%. Moreover, the MBC in [2] is over 300 µg/mL; in [3], over 300 µg/mL; in data set [4], 200 µg/mL; in data set [5], over 300 µg/mL; in data set [6], over 300 µg/mL; in data set [7], over 300 µg/mL. Further, the MBC in data set [8] is >300 (>300) μg/ml; in data set [9], 70 µg/mL. For the same substance, in data set [11], the “precipitation in the presence of PG/CL liposome” value is on record as “not affected”.
Take HRRSVAHQEEASLHVKTDELPSPDTVREQL-OH [P4P]: the MBC in [2], in [3], in data set [4], in data set [5], in data set [6] and in data set [7] was >300 (>300) μg/ml each time. Besides, the MBC in data set [8] and in [9] was >300 (>300) μg/ml throughout.
Turning to RRRFVAQQNAIHSRVSRQVPTLSNSV-OH [NP1P], the “Hemolytic activity (%)” value in [1] is recorded as 1.32 ± 0.02%. The “concentration causing dye-leakage (membrane disruption) of PC liposomes” value in data set [12] (PC only liposomes, 10 mM Tris-HCl pH 7.5 with 350 mM sucrose, room temperature) is over 200 µg/mL. The MBC in data set [2] was found to be 30 µg/mL; in [3], 10 µg/mL; in data set [4], 30 µg/mL; in data set [5], 200 µg/mL; in [6], 10 µg/mL; in data set [7], 30 µg/mL. The MBC was >300 (>300) μg/ml in data set [8] and 20 µg/mL in data set [9]. The “concentration causing dye-leakage (membrane damage) of PG/CL liposomes” value in data set [13] is over 200 µg/mL.
As for “RRRSVGQQNAIPSHIQVNKFFLRKPAKQHI-OH [NP3P]”, the “Hemolytic activity (%)” value in data set [1] is listed as 2.61 ± 0.02%. Besides, the “effect on PC liposome membrane (in words)” value in data set [12] (PC liposomes, data not shown) is “did not affect PC liposome membrane”. For the same substance, the MBC was found to be 20 µg/mL in data set [2]; 5 µg/mL in data set [3]; 10 µg/mL in [4]; 7 µg/mL in data set [5]; 7 µg/mL in data set [6]; 20 µg/mL in [7]. Also, the MBC in [8] was >300 (>300) μg/ml; in data set [9], 20 µg/mL. In data set [13], the “concentration causing dye-leakage (membrane damage) of PG/CL liposomes” value was at least 0.3 µg/mL. For the same substance, the “precipitation in the presence of PG/CL liposome” value in data set [11] is on record as “precipitated”.

Values taken from publication PMC3070621, “Generation of novel cationic antimicrobial peptides from natural non-antimicrobial sequences by acid-amide substitution” (Annals of Clinical Microbiology and Antimicrobials, 2011).
